# According to US4268685A, “Salicylamide esters and related pharmaceutical composition” (Neopharmed S.p.A., priority 1979, dated 1981):
# How the values were obtained:
# [1] = solubility of the product; type: physicochemical
# hot plate test = conditions: in vivo
# From the text: The pharmacological tests, as carried out with the compound of example 3, show: […]
# [2] = plasma content (bioavailability) after administration; conditions: in vivo
# [3] = in vivo
# [4] = system: prostaglandine synthetases; assay: forming of prostaglandine synthetases
# [5] = in vivo, po
smiles,measurement,setting,value
"COc1ccc2cc([C@H](C)C(=O)Oc3ccccc3C(N)=O)ccc2c1 [Example 1, Ester of salicylamide with 2-(6'-methoxy-2'-naphtyl)-propionic acid]",solubility in acetone,[1]; acetone,soluble
same,solubility in alcohol,[1]; alcohol,little soluble
same,solubility in benzene,[1]; benzene,little soluble
same,solubility in chloroform,[1]; chloroform,little soluble
same,solubility in pyridine,[1]; pyridine,soluble
same,solubility in water,[1]; water,insoluble
"CC(C)Cc1ccc(C(C)C(=O)Oc2ccccc2C(N)=O)cc1 (centres unmarked) [Example 3, Ester of salicylamide with 2-(4-isobutyl-phenyl)-propionic acid]",activity at the hot plate test,hot plate test,high activity
same,time extended action,[2],time extended action
same,time for which plasma content remains essentially unchanged,[3]; po,more than 7 hours
same,effect on the forming of prostaglandine synthetases,[4],enhanced
"CC(C)Cc1ccc(C(C)C(=O)O)cc1 (centres unmarked) [Ibuprofen, 2-(4-isobutyl-phenyl)-propionic acid]",Tmax,[5],1 h
same,effect on the forming of prostaglandine synthetases,[4],opposite behaviour
COc1ccc2c(c1)c(CC(=O)O)c(C)n2C(=O)c1ccc(Cl)cc1 [indomethacin],effect on the forming of prostaglandine synthetases,[4],opposite behaviour
NC(=O)c1ccccc1O [salicylamide],presence of salicylamide in the plasma,[3],not present in the plasma
